Data set [1] can be described thus: Exploratory trial: plasma concentration of rikkunshito ingredients after single oral rikkunshito 7.5 g. In kind it is in vivo. Conditions: human, in vivo. In short, it runs like this:
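Plasma and urine levels were measured by LC–MS/MS after one 7.5 g oral dose of rikkunshito. Samples were collected before dosing and at 0.5–8 h for blood, or in 0–4 h and 4–8 h fractions for urine. Synephrine was determined after protein-removal plate cleanup; the other ingredients after β-glucuronidase deconjugation (2 h, 37°C) and SPE.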

The nature of data set [2]: Exploratory trial: amount of rikkunshito ingredients in urine. It counts as in vivo, human. Conditions: mean ± S.D., n = 4. In short, it runs like this:
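LC–MS/MS measurement of rikkunshito constituents in urine fractions (pre-dose, 0–4 h, 4–8 h) following one 7.5 g oral dose. Other constituents: enzymatic deglucuronidation at 37 °C for 2 h, then SPE cleanup with atractylenolide III or digoxin as IS; synephrine: erythromycin IS, Ostro plate.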

The test system of a further data set is ghrelin receptor (GHS-R). The note with it: cited from earlier work.
A short description of data set [3]: Formation of ingredients derived from rikkunshito in formulation, blood, and urine (S11 Table summary). The note with it: after rikkunshito administration; per ingredient in the formulation; BQL = below the quantification limit.

Regarding `C/C=C/C#CC#C/C=C/c1ccco1` [Atractylodin], the concentration at 0 h in data set [1] (0 h (preadministration), single oral rikkunshito 7.5 g, mean ± S.D., n = 4, read-out: Plasma concentration, 0 h) was 0.328 ± 0.655 ng/mL. For the same molecule, the concentration at 0.5 h in data set [1] (0.5 h after single oral rikkunshito 7.5 g, mean ± S.D., n = 4, read-out: Plasma concentration, 0.5 h) turned out to be 1.19 ± 0.913 ng/mL. The concentration at 1 h in data set [1] (1 h after single oral rikkunshito 7.5 g, mean ± S.D., n = 4) is 1.38 ± 1.15 ng/mL. For the same molecule, the concentration at 2 h in data set [1] (2 h after single oral rikkunshito 7.5 g, mean ± S.D., n = 4, read-out: Plasma concentration, 2 h) was determined as 0.863 ± 1.01 ng/mL. The concentration at 4 h in data set [1] (4 h after single oral rikkunshito 7.5 g, mean ± S.D., n = 4, read-out: Plasma concentration, 4 h) was determined as 1.14 ± 0.899 ng/mL. Moreover, the concentration at 8 h in data set [1] (8 h after single oral rikkunshito 7.5 g, mean ± S.D., n = 4, read-out: Plasma concentration, 8 h) worked out at 0.295 ± 0.59 ng/mL. For the same molecule, the Cmax in data set [1] (rikkunshito 7.5 g, four subjects, highest mean concentration over 0–8 h, read-out: C max in plasma (exploratory trial)) turned out to be 1.38 ng/mL. For the same molecule, the “Amount in urine, 0–4 h” value in data set [2] (0–4 h after single oral rikkunshito 7.5 g) was 75.8 ± 152 ng. Further, the “Amount in urine, 4–8 h” value in data set [2] (4–8 h after single oral rikkunshito 7.5 g) is listed as “BQL”. The “Amount in urine, Pre” value in data set [2] (preadministration (between dinner and bedtime)) is listed as “BQL”. Moreover, in the data set on ghrelin receptor (GHS-R), the “Known pharmacology activities: ghrelin signal” value is “Ghrelin signal enhancement effect [1]”. Besides, in data set [3], the “Formation of ingredients: form found in Urine” value is “Atractylodin”.

The values above are taken from paper PMC4506051, “Pharmacokinetic Profiles of Active Ingredients and Its Metabolites Derived from Rikkunshito, a Ghrelin Enhancer, in Healthy Japanese Volunteers: A Cross-Over, Randomized Study” (PLoS ONE, 2015).
